Test results taken from patent US20130143964A1, “S[…], AND COSMETIC COMPOSITION, FOOD, AND SUNDRY ARTICLE CONTAINING THE SAME” (priority 2010, published 2013).

Test system: activity of the sympathetic nerve
Assay: Test of measuring sympathetic nerve activity: power spectrum analysis of systolic blood pressure fluctuation (SBP-LF) when smelling the aroma
Assay type: in vivo, human test subjects
Experimental: The test samples were prepared by diluting ethyl 4-methoxybenzoate with ethanol to a concentration of 0.1 mass %, and how the aromas of those test samples influenced the sympathetic nerve activity was tested.
(Test Method of Measuring Sympathetic Nerve Activity)
A heart beat interval or blood pressure constantly change in a complex manner even at rest, and is under control of multiple nervous systems representing the sympathetic nerve and the parasympathetic nerve. Thus, it is known that the activity of respective nervous systems can be calculated by analyzing the frequency of a heart beat interval variation (a heart beat interval fluctuation) or a blood pressure variation (a blood pressure fluctuation). […] The activity of the sympathetic nerve is quantified from the intensity of the low frequency component (SBP-LF), and an influence of an aroma given off from the test sample on the activity of the sympathetic nerve was evaluated. […]
A tonometry sensor was fitted at a carpal radius […] of a test subject, and is connected to a patient monitor for continuous measurement of blood pressure. […] Continuously measured blood pressure data was taken in a personal computer to undergo power spectrum analysis of the blood pressure fluctuation in systole using automatic nervous system activity analytical software. […]

CCOC(=O)c1ccc(OC)cc1 [ethyl 4-methoxybenzoate]
activity of the sympathetic nerve (determination from SBP-LF ratio) (six test subjects in their 20's smelling aroma of 0.1 mass % test sample): the activity of the sympathetic nerve quieted down
SBP-LF ratio (SBP-LF value when smelling the aroma divided by SBP-LF value when not smelling the aroma) (six test subjects in their 20's, 0.1 mass % in ethanol, 20 μl soaked into cotton stuck below the nose, ethanol volatilized, 25° C., humidity 45%): smaller than 1
